Experimental data from patent US20080009418A1, “Selective Inhibitors” (Alchemia LTD., priority 2004, published 2008).

What was measured:
Settings in all cases: compound at 10 μM
Human κ-Opioid (KOP) = target: T1, Human κ-Opioid (KOP) (Homo sapiens, UniProt P41145); experiment: Radioligand binding, human κ-opioid (KOP) membranes, filtration, [3H]-Diprenorphine
T1 construct: purchased Perkin Elmer Biosignal
Method in brief: (§1)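 Membranes from cloned human receptors were incubated with compound and radioligand for 1 hour at room temperature. Bound ligand was collected on 0.3% PEI-soaked filters, washed with cold 50 mM Tris-HCl pH 7.4, and counted by scintillation. Percent inhibition was computed against DMSO totals and reference-ligand nonspecific wells.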

[1] = target: T2, Human melanin-concentrating hormone (MCH1) (Homo sapiens, UniProt Q99705); experiment: Radioligand binding, human melanin-concentrating hormone MCH1 membranes, FlashPlate, [125I]-S36057
T2 construct: purchased Perkin Elmer Biosignal
T2 sequence (Q99705 whole entry): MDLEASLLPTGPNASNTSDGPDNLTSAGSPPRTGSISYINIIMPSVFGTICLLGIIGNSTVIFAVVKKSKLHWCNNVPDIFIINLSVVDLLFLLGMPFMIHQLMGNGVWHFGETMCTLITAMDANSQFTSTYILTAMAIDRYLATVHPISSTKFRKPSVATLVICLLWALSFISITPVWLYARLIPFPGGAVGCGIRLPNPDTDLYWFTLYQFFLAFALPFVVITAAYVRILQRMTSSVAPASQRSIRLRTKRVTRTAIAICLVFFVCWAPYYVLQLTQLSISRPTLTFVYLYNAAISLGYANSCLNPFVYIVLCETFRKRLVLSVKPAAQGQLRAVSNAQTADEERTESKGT
Method in brief: (§2)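 Cloned human receptor membranes were coated onto FlashPlate wells and incubated with radioligand and compound (added from a 0.5 mM DMSO daughter plate) for 1 hour at room temperature in the dark. Scintillation counting gave percent inhibition, with DMSO defining total and reference ligand defining non-specific binding.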

[2] = target: T3, Human neuropeptide Y (NPY-Y1) (Homo sapiens, UniProt P25929); experiment: Radioligand binding, human neuropeptide Y NPY-Y1 membranes, FlashPlate, [125I]-PYY
T3 construct: purchased Perkin Elmer Biosignal
T3 sequence (P25929 1-384): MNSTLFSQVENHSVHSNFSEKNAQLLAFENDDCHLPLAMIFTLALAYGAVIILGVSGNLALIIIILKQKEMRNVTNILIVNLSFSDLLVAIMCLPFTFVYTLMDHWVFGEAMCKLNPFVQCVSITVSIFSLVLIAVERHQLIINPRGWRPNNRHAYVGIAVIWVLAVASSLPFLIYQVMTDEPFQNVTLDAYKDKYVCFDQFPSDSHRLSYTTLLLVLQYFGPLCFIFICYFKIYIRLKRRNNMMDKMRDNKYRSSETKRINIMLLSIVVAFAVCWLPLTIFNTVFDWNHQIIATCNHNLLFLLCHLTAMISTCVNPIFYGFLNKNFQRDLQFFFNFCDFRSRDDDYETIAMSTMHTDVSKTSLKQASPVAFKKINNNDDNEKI
Method in brief: as §2

Human δ-opioid (DOP) = target: T4, Human δ-opioid (DOP) (Homo sapiens, UniProt P41143); experiment: Radioligand binding, human δ-opioid (DOP) membranes, FlashPlate, [3H]-Bremazocine
T4 construct: purchased Perkin Elmer Biosignal
T4 sequence (P41143 whole entry): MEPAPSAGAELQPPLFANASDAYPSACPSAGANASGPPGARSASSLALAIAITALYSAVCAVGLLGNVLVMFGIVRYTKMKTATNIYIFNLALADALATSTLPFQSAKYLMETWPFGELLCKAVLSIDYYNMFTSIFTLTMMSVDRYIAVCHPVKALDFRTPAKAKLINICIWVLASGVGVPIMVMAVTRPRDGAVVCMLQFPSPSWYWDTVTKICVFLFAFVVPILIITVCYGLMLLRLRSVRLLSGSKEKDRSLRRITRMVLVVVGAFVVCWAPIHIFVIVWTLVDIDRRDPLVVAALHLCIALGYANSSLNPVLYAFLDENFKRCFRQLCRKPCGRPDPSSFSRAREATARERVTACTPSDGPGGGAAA
Method in brief: as §2

Human Melanocortin (MC4) = target: T5, Human Melanocortin (MC4) (Homo sapiens, UniProt P32245); experiment: Radioligand binding, human melanocortin MC4 membranes, FlashPlate, [125I]-NDP-αMSH
T5 construct: purchased Perkin Elmer Biosignal
T5 sequence (P32245 whole entry): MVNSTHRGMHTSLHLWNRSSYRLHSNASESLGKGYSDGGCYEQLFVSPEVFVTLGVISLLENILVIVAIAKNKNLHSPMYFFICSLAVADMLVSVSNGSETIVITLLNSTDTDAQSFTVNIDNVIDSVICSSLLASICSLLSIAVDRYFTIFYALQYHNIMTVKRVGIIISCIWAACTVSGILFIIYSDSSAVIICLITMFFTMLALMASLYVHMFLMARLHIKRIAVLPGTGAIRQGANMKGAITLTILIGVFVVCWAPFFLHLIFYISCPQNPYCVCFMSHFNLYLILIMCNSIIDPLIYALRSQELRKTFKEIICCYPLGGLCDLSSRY
Method in brief: as §2

Human μ-opioid (MOP) = target: T6, Human μ-opioid (MOP) (Homo sapiens, UniProt P35372); experiment: Radioligand binding, human μ-opioid (MOP) membranes, FlashPlate, [3H]-Naloxone
T6 construct: purchased Perkin Elmer Biosignal
T6 sequence (P35372 whole entry): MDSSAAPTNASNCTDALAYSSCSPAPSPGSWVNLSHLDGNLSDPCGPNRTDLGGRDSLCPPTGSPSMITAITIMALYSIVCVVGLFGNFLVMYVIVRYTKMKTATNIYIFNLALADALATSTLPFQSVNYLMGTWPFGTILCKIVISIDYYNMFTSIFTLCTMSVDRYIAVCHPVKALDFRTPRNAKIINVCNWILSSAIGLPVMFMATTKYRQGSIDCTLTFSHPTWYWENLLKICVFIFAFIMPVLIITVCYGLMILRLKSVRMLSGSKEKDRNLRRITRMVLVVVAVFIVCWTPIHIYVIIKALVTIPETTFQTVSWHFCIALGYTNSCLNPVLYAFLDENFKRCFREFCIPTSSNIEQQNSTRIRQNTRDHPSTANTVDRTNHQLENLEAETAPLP
Method in brief: as §2

Mouse urotensin (mUR2) = target: T7, Mouse urotensin (mUR2) (Mus musculus, UniProt Q8VIH9); experiment: Radioligand binding, mouse urotensin mUR2 membranes, FlashPlate, [125I]-Urotensin II
T7 construct: purchased Perkin Elmer Biosignal
T7 sequence (Q8VIH9 1-385): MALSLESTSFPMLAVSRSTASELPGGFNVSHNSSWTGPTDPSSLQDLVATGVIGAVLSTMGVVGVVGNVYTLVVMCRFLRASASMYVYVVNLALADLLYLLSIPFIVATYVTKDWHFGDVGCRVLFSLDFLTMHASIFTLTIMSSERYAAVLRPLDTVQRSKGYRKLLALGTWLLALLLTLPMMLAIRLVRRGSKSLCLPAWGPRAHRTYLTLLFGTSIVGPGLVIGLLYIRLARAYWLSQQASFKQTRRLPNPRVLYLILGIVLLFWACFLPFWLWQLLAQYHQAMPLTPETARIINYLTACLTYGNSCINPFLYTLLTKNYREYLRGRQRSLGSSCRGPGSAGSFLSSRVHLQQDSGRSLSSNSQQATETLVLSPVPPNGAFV
Method in brief: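 Cloned mouse urotensin (mUR2) receptor membranes from Perkin Elmer Biosignal were immobilized in FlashPlate microplates using a proprietary coating. Each well got 19.5 μl buffer, then 0.5 μl of DMSO, reference ligand, or compound. Adding 5 μl of [125I]-Urotensin II, diluted to 5× final concentration in binding buffer, started binding. Plates were sealed with TopSeal-A and incubated 1 hour at room temperature in the dark. Wells were counted for 30 seconds each on a TopCount after a 60-second delay, and percentage inhibition was calculated.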

Human Melanocortin (MC3) = target: T8, Human Melanocortin (MC3) (Homo sapiens, UniProt P41968); experiment: Radioligand binding, human melanocortin MC3 membranes, FlashPlate, [125I]-NDP-αMSH
T8 construct: purchased Perkin Elmer Biosignal
T8 sequence (P41968 whole entry): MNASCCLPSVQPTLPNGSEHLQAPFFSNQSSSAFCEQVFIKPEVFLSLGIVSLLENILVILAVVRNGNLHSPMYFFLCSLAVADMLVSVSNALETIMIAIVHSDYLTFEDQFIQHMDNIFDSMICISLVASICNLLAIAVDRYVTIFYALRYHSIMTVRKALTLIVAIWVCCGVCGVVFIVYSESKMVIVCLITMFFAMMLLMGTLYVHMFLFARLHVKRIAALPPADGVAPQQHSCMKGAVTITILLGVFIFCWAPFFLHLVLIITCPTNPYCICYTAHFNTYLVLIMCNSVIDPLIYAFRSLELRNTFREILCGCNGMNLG
Method in brief: as §2

Human melanocortin (MC5) = target: T9, Human melanocortin (MC5) (Homo sapiens, UniProt P33032); experiment: Radioligand binding, human melanocortin MC5 membranes, FlashPlate, [125I]-NDP-αMSH
T9 construct: purchased Perkin Elmer Biosignal
T9 sequence (P33032 whole entry): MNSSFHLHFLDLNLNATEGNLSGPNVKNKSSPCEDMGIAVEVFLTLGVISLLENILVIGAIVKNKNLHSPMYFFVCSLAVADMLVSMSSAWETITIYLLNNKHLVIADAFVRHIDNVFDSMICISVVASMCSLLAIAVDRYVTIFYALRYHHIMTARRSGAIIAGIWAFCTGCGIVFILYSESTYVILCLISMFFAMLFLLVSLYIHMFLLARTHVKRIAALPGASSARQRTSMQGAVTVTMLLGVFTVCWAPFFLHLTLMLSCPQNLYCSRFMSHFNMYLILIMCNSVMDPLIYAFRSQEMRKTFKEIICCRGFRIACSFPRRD
Method in brief: as §2

Human neurokinin (NK1) = target: T10, Human neurokinin (NK1) (Homo sapiens, UniProt P25103); experiment: Radioligand binding, human neurokinin NK1 membranes, filtration, [125I]-Substance P
T10 construct: purchased Perkin Elmer Biosignal
T10 sequence (P25103 whole entry): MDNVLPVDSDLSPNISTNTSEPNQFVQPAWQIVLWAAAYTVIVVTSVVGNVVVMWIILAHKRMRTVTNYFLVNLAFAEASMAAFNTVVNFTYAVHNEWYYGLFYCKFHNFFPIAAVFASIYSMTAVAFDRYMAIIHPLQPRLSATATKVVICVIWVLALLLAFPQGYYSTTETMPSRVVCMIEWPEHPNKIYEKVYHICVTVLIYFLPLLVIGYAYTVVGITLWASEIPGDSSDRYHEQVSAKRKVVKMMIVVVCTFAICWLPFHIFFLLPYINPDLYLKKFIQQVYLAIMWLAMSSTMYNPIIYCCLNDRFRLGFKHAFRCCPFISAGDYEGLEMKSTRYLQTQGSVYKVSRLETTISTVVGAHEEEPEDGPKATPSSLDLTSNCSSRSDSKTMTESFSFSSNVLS
Method in brief: as §1

Human opioid (ORL1) = target: T11, Human opioid (ORL1) (Homo sapiens, UniProt P41146); experiment: Radioligand binding, human opioid ORL1 membranes, FlashPlate, [125I]-Nociceptin
T11 construct: purchased Perkin Elmer Biosignal
T11 sequence (P41146 whole entry): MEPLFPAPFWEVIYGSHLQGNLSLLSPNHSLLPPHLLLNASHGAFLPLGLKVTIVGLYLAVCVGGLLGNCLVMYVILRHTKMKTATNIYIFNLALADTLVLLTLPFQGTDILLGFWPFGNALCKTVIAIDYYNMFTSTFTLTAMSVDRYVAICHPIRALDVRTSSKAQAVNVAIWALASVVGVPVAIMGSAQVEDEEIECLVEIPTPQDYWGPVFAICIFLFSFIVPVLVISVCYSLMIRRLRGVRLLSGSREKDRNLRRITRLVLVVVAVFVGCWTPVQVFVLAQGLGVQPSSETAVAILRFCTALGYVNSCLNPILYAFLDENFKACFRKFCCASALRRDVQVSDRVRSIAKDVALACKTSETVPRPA
Method in brief: as §2

T1 sequence (P41145 whole entry): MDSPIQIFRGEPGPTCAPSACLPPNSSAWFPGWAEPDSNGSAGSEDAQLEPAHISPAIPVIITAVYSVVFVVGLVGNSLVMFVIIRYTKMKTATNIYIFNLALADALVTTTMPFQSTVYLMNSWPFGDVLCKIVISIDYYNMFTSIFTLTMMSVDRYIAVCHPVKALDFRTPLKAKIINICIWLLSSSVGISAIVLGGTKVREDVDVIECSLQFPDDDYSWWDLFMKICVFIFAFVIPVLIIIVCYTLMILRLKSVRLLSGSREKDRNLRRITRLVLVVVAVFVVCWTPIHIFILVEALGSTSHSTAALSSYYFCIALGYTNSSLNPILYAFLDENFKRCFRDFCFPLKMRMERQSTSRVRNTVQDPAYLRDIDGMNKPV

For `CO[C@H]1[C@H](O)[C@@H](COCc2ccc3ccccc3c2)OC(OCc2ccccc2)[C@@H]1NC(=O)CCNC(=N)N` (stereo partly shown) [compound 87], the “A2 radioligand binding inhibition” value (Human κ-Opioid (KOP); human κ-opioid (KOP) membranes) was “− (“−” indicates less than 50% inhibition at 10 μM)”, the “A6 radioligand binding inhibition” value ([1]; human MCH1 membranes) was “− (“−” indicates less than 50% inhibition at 10 μM)” and the “A9 radioligand binding inhibition” value ([2]; human NPY-Y1 membranes) was “− (“−” indicates less than 50% inhibition at 10 μM)”. The “A1 radioligand binding inhibition” value (Human δ-opioid (DOP); human δ-opioid (DOP) membranes) was “− (“−” indicates less than 50% inhibition at 10 μM)”, the “A4 radioligand binding inhibition” value (Human Melanocortin (MC4); human melanocortin MC4 membranes) was “− (“−” indicates less than 50% inhibition at 10 μM)” and the “A7 radioligand binding inhibition” value (Human μ-opioid (MOP); human μ-opioid (MOP) membranes) was “− (“−” indicates less than 50% inhibition at 10 μM)”. For the same compound, the “A11 radioligand binding inhibition” value (Mouse urotensin (mUR2); mouse urotensin mUR2 membranes) was “− (“−” indicates less than 50% inhibition at 10 μM)”, the “A3 radioligand binding inhibition” value (Human Melanocortin (MC3); human melanocortin MC3 membranes) was “− (“−” indicates less than 50% inhibition at 10 μM)” and the “A5 radioligand binding inhibition” value (Human melanocortin (MC5); human melanocortin MC5 membranes) was “− (“−” indicates less than 50% inhibition at 10 μM)”. For the same compound, the “A8 radioligand binding inhibition” value (Human neurokinin (NK1); human neurokinin NK1 membranes) was “+ (“+” indicates greater than 50% inhibition at 10 μM)” and the “A10 radioligand binding inhibition” value (Human opioid (ORL1); human ORL1 membranes) was “− (“−” indicates less than 50% inhibition at 10 μM)”.
`COCC1OC(OCc2ccc(Cl)cc2)C(NC(=O)CCNC(=N)N)C(OCc2ccc3ccccc3c2)C1O` (stereo not shown) [compound 211] was tested, and the “A2: inhibition of radioligand binding” value (Human κ-Opioid (KOP); [3H]-Diprenorphine, filtration) was “+ (“+” indicates greater than 50% inhibition at 10 μM)”, the “A6: inhibition of radioligand binding” value ([1]; [125I]-S36057, FlashPlate) was “+ (“+” indicates greater than 50% inhibition at 10 μM)” and the “A9: inhibition of radioligand binding” value ([2]; [125I]-PYY, FlashPlate) was “− (“−” indicates less than 50% inhibition at 10 μM)”. The “A1: inhibition of radioligand binding” value (Human δ-opioid (DOP); [3H]-Bremazocine, FlashPlate) was “− (“−” indicates less than 50% inhibition at 10 μM)”, the “A4: inhibition of radioligand binding” value (Human Melanocortin (MC4); [125I]-NDP-αMSH, FlashPlate) was “+ (“+” indicates greater than 50% inhibition at 10 μM)” and the “A7: inhibition of radioligand binding” value (Human μ-opioid (MOP); [3H]-Naloxone, FlashPlate) was “+ (“+” indicates greater than 50% inhibition at 10 μM)”. For the same compound, the “A11: inhibition of radioligand binding” value (Mouse urotensin (mUR2); [125I]-Urotensin II, FlashPlate) was “− (“−” indicates less than 50% inhibition at 10 μM)”, the “A3: inhibition of radioligand binding” value (Human Melanocortin (MC3); [125I]-NDP-αMSH, FlashPlate) was “− (“−” indicates less than 50% inhibition at 10 μM)” and the “A5: inhibition of radioligand binding” value (Human melanocortin (MC5); [125I]-NDP-αMSH, FlashPlate) was “+ (“+” indicates greater than 50% inhibition at 10 μM)”. For the same compound, the “A8: inhibition of radioligand binding” value (Human neurokinin (NK1); [125I]-Substance P, filtration) was “+ (“+” indicates greater than 50% inhibition at 10 μM)” and the “A10: inhibition of radioligand binding” value (Human opioid (ORL1); [125I]-Nociceptin, FlashPlate) was “− (“−” indicates less than 50% inhibition at 10 μM)”.
